Our source for the activity values is PMC12518639, “Apomorphine is a novel necroptosis inhibitor targeting mixed lineage kinase domain-like protein oligomerization” (Cell Death Discovery, 2025).

Counter-ions that a name gives are not always drawn. Where a SMILES comes first, the peptide text is derived from it. The star is where a group is joined. Cbz = O=C(OCc1ccccc1)*

The subject of one experiment is THP-1-HMGB1-Lucia cells. Briefly: TBZ-induced necroptosis screening by HMGB1-luciferase release. In kind it is cell-based, human. The settings on record: 20 μM compound with TBZ, 8 h; TBZ alone = 100, DPBS = 0; read-out: % Inhibition (luciferase activity relative to TBZ-treated supernatant). As to the method: To identify potential inhibitors of the necroptosis pathway targeting MLKL or the process of p-MLKL pore formation on the membrane, we screened a library of 2150 compounds, including FDA-approved drugs and those in phase 1–3 clinical trials, using THP-1-HMGB1-Lucia™ cells expressing the HMGB1-luciferase fusion protein. The cells were treated with a necroptosis-inducing mixture containing TNF-α, BV6, and Z-VAD-FMK (TBZ) in addition to the compound library (Fig. 1A). The supernatants were harvested to measure luciferase activities for necroptosis. The luciferase activities of cell supernatants treated with TBZ alone were considered as the maximum release (100%) of HMGB1-luciferase. NEC-1, a known RIP1 inhibitor used in both humans and mice, was used as a positive control. […] Next, we performed a propidium iodide (PI) uptake assay to exclude cytotoxic compounds using THP-1 cells. Then, we selected candidate molecules that were arbitrarily less than 30% of those treated with TBZ. […] Next, the inhibition levels of p-MLKL were tested to select MLKL-targeting molecules (Figs. 1C and S1A). Compounds that reduced p-MLKL levels to less than 30% of TBZ-treated controls were considered as potential inhibitors of MLKL phosphorylation. Conversely, compounds that maintained p-MLKL levels above 70% were selected because they are presumed to prevent the formation of pores in the plasma membrane by interfering with oligomerization.
A clinical chemical library containing 2150 items (Korea Chemical Bank, South Korea), under phase 1–3 clinical trials, including FDA-approved drugs, was used to screen for necroptosis inhibitors. Each chemical was dissolved in DMSO and diluted to 20 μM in DPBS for treatment.
THP-1-HMGB1-Lucia^TM cells were pretreated with the pan-caspase inhibitor Z-VAD-FMK (50 μM, tlrl-vad, InvivoGen) and each chemical for 1 h, and followed by TNF-α (100 ng/mL, TNF0501, NKMAXBio, Seongnam, S. Korea) and Smac mimetic BV6 (10 μM, B1332-5, Biovision, Santa Clara, CA, USA), termed TBZ mixture, were added for necroptosis screening. The RIP1 inhibitor, NEC-1 (1846, Biovision), and MLKL inhibitor, NSA (432531-71-0, Sigma-Aldrich, St. Louis, MO, USA), were used as controls. The cell supernatant was harvested to measure HMGB1 levels using a luciferase assay kit (E1500, Promega, Madison, WI, USA) by a luminometer (Centro XS3 LB 960, Berthold Technologies, Bad Wildbad, Germany). The inhibition of necroptosis (%) was calculated as: (sample-treated data – medium-only data) × 100/(TBZ-treated data – medium-only data). APO [STK088477, (6aS)-6-methyl-5,6,6a,7-tetrahydro-4H-dibenzo[de,g]quinoline-10,11-diol, Vitas-M Laboratory, Hong Kong] was stored at −70 °C after aliquoting with DMSO. APO was used after dilution in DPBS. APO is susceptible to auto-oxidation in solution in the presence of light and air. DPBS containing 5 mM DTT was used for Re-APO. Ox-APO was prepared by incubating APO in DPBS at 25 °C for 24 h in the presence of light and air, followed by removal of any precipitate by filtration through 0.2 μm.
As for `CC(C)C[C@@H](C=O)NC(=O)[C@H](CC(C)C)NC(=O)[C@H](CC(C)C)NC(=O)OCc1ccccc1` [S6, Z-Leu-Leu-Leu-al] (Cbz-Leu-Leu-Leu-aldehyde), the activity was 7.5%.
On the same count and under the same terms, the result for `O=c1[nH]c2ccc(Cl)cc2c(N[C@@H]2CN3CCC2CC3)c1-c1nc2ccccc2[nH]1` [S45, CHIR 124] reads 6.5%.
`O=C1/C(=C/c2ccccc2F)CNC/C1=C\c1ccccc1F` [S49, EF-24]: the activity was found to be 10.2%.
Same read-out and setting: the result for `CCCc1c(-c2ccc(O)cc2)nn(-c2ccc(O)cc2)c1-c1ccc(O)cc1` [S71, PPT] reads 1.5%; that for `CC(=O)c1ccc(NC2=C(Cl)C(=O)c3ccccc3C2=O)cc1` [S21, NQ301], 4.1%; that for `CN1C(=O)C(Cc2c[nH]c3ccccc23)NC1=S` (centres unmarked) [Necrostatin-1], 1.2%.
As for `O=S(=O)(c1ccccc1)N(CC(F)(F)F)c1ccc(C(O)(C(F)(F)F)C(F)(F)F)cc1` [S52, T0901317], the activity worked out at 7.2%.
On to `O=C(Nc1ccc(S(=O)(=O)C(F)(F)F)cc1)C1=CCN(c2ncccc2C(F)(F)F)CC1` [S7, A 784168], for which the activity was 4.2%.
Regarding `COc1ccc(CNC(=O)Nc2ncc([N+](=O)[O-])s2)cc1` [S36, AR-A014418], the activity stood at 10.8%.
The same measure, in the same setting: the result for `COc1ccc(CN2CCN(C(c3ccc(F)cc3)c3ccc(F)cc3)CC2)c(OC)c1OC` [S64, Lomerizine hydrochloride] reads 5.3%; that for JTE 013 [S11], 5.8%.
On the same count and under the same terms, the result for `Cc1ccccc1N(C)C(=O)c1ccc([S+]([O-])c2nccs2)c([N+](=O)[O-])c1` (centres unmarked) [S32, SB 268262] reads 0%.
The same measure, in the same setting: then `COc1ccc(C(c2c(O)c3ccccc3oc2=O)c2c(O)c3ccccc3oc2=O)cc1CSc1ccccn1` [S29, STK529529], with 2.8%; and `COc1ccc(C(c2c(O)c3ccccc3oc2=O)c2c(O)c3ccccc3oc2=O)cc1Cn1nc(C)c([N+](=O)[O-])c1C` [S33, STK528708], with 0.1%.
As to `CC(C)c1onc(-c2c(Cl)cccc2Cl)c1COc1ccc(/C=C/c2cccc(C(=O)O)c2)c(Cl)c1` [S27, GW4064], the activity turned out to be 9.2%.

Staying with this experiment, now noted: Homo sapiens, 8 h, read-out: % Inhibition (luciferase activity relative to TBZ-treated supernatant).
For the compound `C[C@@H]1O[C@@H](O[C@@H]2C=C3CC[C@@H]4[C@H](CC[C@]5(C)[C@@H](c6ccc(=O)oc6)CC[C@]45O)[C@@]3(C)CC2)[C@H](O)[C@H](O)[C@H]1O` [S48, Proscillaridin], the activity at 20 µM was determined as 6.8%.
The same measure, in the same setting: the result for `COc1cccc2c1C(=O)c1c(O)c3c(c(O)c1C2=O)C[C@@](O)(C(C)=O)C[C@@H]3O[C@H]1C[C@H](N)[C@H](O)[C@H](C)O1` [S61, Daunorubicin] reads 6%; that for `CC(C)CN(C[C@@H](O)[C@H](Cc1ccccc1)NC(=O)O[C@H]1CO[C@H]2OCC[C@H]21)S(=O)(=O)c1ccc(N)cc1` [S23, Prezista], 11.2%.

The same experiment, now with this note: Homo sapiens; 20 μM compound with TBZ, 8 h; TBZ alone = 100, DPBS = 0; read-out: % Inhibition (luciferase activity relative to TBZ-treated supernatant).
As for `O=c1ncn2nc(Sc3ccc(F)cc3F)ccc2c1-c1c(Cl)cccc1Cl` [S2, Neflamapimod], the activity at 20 µM worked out at 6.8%.
As to `CC[C@@]1(O)C(=O)OCc2c1cc1n(c2=O)Cc2cc3c(CN(C)C)c(O)ccc3nc2-1` [S65, Topotecan hydrochloride], the activity at 20 µM stood at 5.2%.
Same read-out and setting: the result for `COc1cc2nccc(Oc3ccc(NC(=O)C4(C(=O)Nc5ccc(F)cc5)CC4)cc3)c2cc1OC` [S14, Cabozantinib] reads 0.7%.
On the same count and under the same terms, then `CC1(C)CNc2cc(NC(=O)c3cccnc3NCc3ccncc3)ccc21` [S37, Motesanib], with 9.4%; and `C=C(CC)C(=O)c1ccc(OCC(=O)O)c(Cl)c1Cl` [S26, Ethacrynic acid], with 3%.
Same read-out and setting: then `COCCOC(=O)C1=C(C)NC(C)=C(C(=O)OC/C=C/c2ccccc2)C1c1cccc([N+](=O)[O-])c1` (centres unmarked) [S63, Cilnidipine], with 11%.
For `CN1CCN(c2nc(C3=C(c4c[nH]c5ccccc45)C(=O)NC3=O)c3ccccc3n2)CC1` [S22, Sotrastaurin], the activity at 20 µM was 4.7%.
On the same count and under the same terms, the result for `Nc1ccc2cc3ccc(N)cc3nc2c1` [S55, Proflavine hemisulfate] reads 3.5%; that for `CC(C)[C@H](CO)Nc1nc(Nc2cccc(Cl)c2)c2ncn(C(C)C)c2n1` [S44, Purvalanol A], 3.8%.
Same read-out and setting: the result for `CC(=O)[C@@]1(O)CC[C@H]2[C@@H]3CCC4=CC(=O)CCC4=C3[C@@H](c3ccc(N(C)C)cc3)C[C@@]21C` [S24, Ulipristal] reads 14%; that for `O=S(=O)(c1cccc2cnccc12)N1CCCNCC1` [S68, Fasudil hydrochloride], 6%; that for `O=C(N[C@H](CO)[C@H](O)c1ccc([N+](=O)[O-])cc1)C(Cl)Cl` [S69, Chloramphenicol], 0%.
In the case of `COc1cccc2c1C(=O)c1c(O)c3c(c(O)c1C2=O)C[C@@](O)(C(=O)CO)C[C@@H]3O[C@H]1C[C@H](N)[C@H](O)[C@H](C)O1` [S66, Doxorubicin], the activity at 20 µM stood at 8.6%.
Consider `N#CC1(c2ccc(NC(=O)c3cccnc3NCc3ccncc3)cc2)CCCC1` [S43, Apatinib], for which the activity at 20 µM amounted to 3.4%.
On to `Cc1ccc(F)c(NC(=O)Nc2ccc(-c3cccc4[nH]nc(N)c34)cc2)c1` [S20, Linifanib], for which the activity at 20 µM was 0%.
The same measure, in the same setting: then `O=C(O)Cc1cccc(OCCCN(Cc2cccc(C(F)(F)F)c2Cl)CC(c2ccccc2)c2ccccc2)c1` [S40, GW3965], with 11.6%; and `Cc1ccc(-n2nc(C(C)(C)C)cc2NC(=O)Nc2ccc(OCCN3CCOCC3)c3ccccc23)cc1` [S51, Doramapimod], with 3.9%.
For the compound `O=C(Nc1cccc2c(=O)cc(-c3nnn[nH]3)oc12)c1ccc(OCCCCc2ccccc2)cc1` [S50, Pranlukast], the activity at 20 µM came to 10.9%.
Same read-out and setting: then `CCc1c(Cl)c(O)c(Cl)c(O)c1C(=O)O[C@H]1[C@H](O)[C@H](OC)[C@H](OC/C2=C\C=C\C[C@H](O)/C(C)=C/[C@H](CC)[C@@H](O[C@@H]3OC(C)(C)[C@@H](OC(=O)C(C)C)[C@H](O)[C@@H]3O)/C(C)=C/C(C)=C/C[C@@H]([C@@H](C)O)OC2=O)O[C@@H]1C` [S5, Fidaxomicin], with 5.9%.
Still for that read-out and setting: then `COc1cccc2c1C(=O)c1c(O)c3c(c(O)c1C2=O)C[C@@](O)(C(=O)CO)C[C@@H]3O[C@H]1C[C@H](N)[C@H](O[C@@H]2CCCCO2)[C@H](C)O1` [S57, Pirarubicin], with 6.4%.
Still for that read-out and setting: then `O=C(NC1CCNCC1)c1[nH]ncc1NC(=O)c1c(Cl)cccc1Cl` [S39, AT7519], with 19.5%.
For the compound `COC(=O)C1=C(C)NC(C)=C(C(=O)OCCN(C)Cc2ccccc2)C1c1cccc([N+](=O)[O-])c1` (centres unmarked) [S60, Nicardipine hydrochloride], the activity at 20 µM amounted to 3.8%.
On the same count and under the same terms, the result for `NC(CO)(CO)CO` [S59, Trometamol] reads 11%.
Still for that read-out and setting: then `CC[C@H]1CN2CCc3cc(OC)c(OC)cc3[C@@H]2C[C@@H]1C[C@H]1NCCc2cc(OC)c(OC)cc21` [S13, Emetine dihydrochloride], with 3.3%; and `COC(=O)[C@]12CCC(C)(C)C[C@H]1[C@H]1C(=O)C=C3[C@@]4(C)C=C(C#N)C(=O)C(C)(C)[C@@H]4CC[C@@]3(C)[C@]1(C)CC2` [S8, Bardoxolone methyl], with 0%; and `Cc1cc(SCc2sc(-c3ccc(C(F)(F)F)cc3)nc2C)ccc1OCC(=O)O` [S41, GW 501516], with 9.1%.
Same read-out and setting: then `CCCS(=O)(=O)Nc1ccc(F)c(C(=O)c2c[nH]c3ncc(-c4ccc(Cl)cc4)cc23)c1F` [S30, Vemurafenib], with 6.4%; and `C#C[C@]1(O)CC[C@H]2[C@@H]3CCc4cc(OC5CCCC5)ccc4[C@H]3CC[C@@]21C` [S54, Quinestrol], with 8.2%.
Take `CN(C)CCOC(c1ccccc1)c1ccccc1` [S70, Diphenhydramine]: the activity at 20 µM amounted to 19.1%.
